In patent US7118895B2, “Process for producing aglycon by using diglycosidase and flavor-improved food containing the aglycon and converting agent to be used in the process” (Amano Enzyme Inc., priority 2000, dated 2006):

Test system: Crude diglycosidase
Assay: Examination of temperature in the conversion into isoflavone aglycons by diglycosidase using soybean materials
Format: biochemical, Penicillium multicolor IAM7153
Set-up: Decomposition efficiency of glycitin family in roasted soy flour / Decomposition efficiency of daidzin family in roasted soy flour / Decomposition efficiency of genistin family in soymilk / Decomposition efficiency of daidzin family in soymilk / Decomposition efficiency of glycitin family in defatted soybean / Decomposition efficiency of daidzin family in defatted soybean: concentration or dose not given beside the values
Procedure: Into 400 μL of 20 mM acetate buffer of pH 4.0 was suspended 50 mg of each of various soybean materials (roasted soy flour (manufactured by Fuji Shokuryo K.K.), soymilk (manufactured by Gitoh Shokuhin K.K.), defatted soybean (manufactured by Fuji Seiyu K.K.), concentrated soybean protein (manufactured by Fuji Seiyu K.K.)), whereby a substrate solution was prepared. Crude diglycosidase was diluted with 20 mM acetate buffer of pH 4.0 to be the glycosidase activity of 1.88 AU/mL. Fifty μL of the enzyme solution was mixed with the substrate solution and the whole was reacted at 80, 65, 55, 45, 37, or 30° C. at the total volume of 500 μL. To the reaction mixture was added 700 μL of ethanol after 0, 1, 3, and 6 hours of the reaction. After stirring and ultrasonication, the mixture was subjected to centrifugal separation at 15,000 rpm and 4° C. for 10 minutes. The supernatant was filtered through a filter and the existence of isoflavone glycosides and aglycon isoflavones contained in the reaction mixture was detected by HLPC.

[1] = 30° C., heat treatment of enzyme no, reaction time 0 h
[2] = 30° C., heat treatment of enzyme no, reaction time 1 h
[3] = 30° C., heat treatment of enzyme no, reaction time 3 h
[4] = 30° C., heat treatment of enzyme no, reaction time 6 h
[5] = 30° C., heat treatment of enzyme yes, reaction time 6 h
[6] = 45° C., heat treatment of enzyme no, reaction time 0 h
[7] = 45° C., heat treatment of enzyme no, reaction time 1 h
[8] = 45° C., heat treatment of enzyme no, reaction time 3 h
[9] = 45° C., heat treatment of enzyme no, reaction time 6 h
[10] = 45° C., heat treatment of enzyme yes, reaction time 6 h
[11] = 45 °C, heat treatment of enzyme: no, 0 h
[12] = 45 °C, heat treatment of enzyme: no, 1 h
[13] = 45 °C, heat treatment of enzyme: no, 3 h
[14] = 45 °C, heat treatment of enzyme: no, 6 h
[15] = 45 °C, heat treatment of enzyme: yes, 6 h
[16] = 55° C., heat treatment of enzyme no, reaction time 0 h
[17] = 55° C., heat treatment of enzyme no, reaction time 1 h
[18] = 55° C., heat treatment of enzyme no, reaction time 3 h
[19] = 55° C., heat treatment of enzyme no, reaction time 6 h
[20] = 55° C., heat treatment of enzyme yes, reaction time 6 h
[21] = 55 °C, heat treatment of enzyme: no, 0 h
[22] = 55 °C, heat treatment of enzyme: no, 1 h
[23] = 55 °C, heat treatment of enzyme: no, 3 h
[24] = 55 °C, heat treatment of enzyme: no, 6 h
[25] = 55 °C, heat treatment of enzyme: yes, 6 h
[26] = 65° C., heat treatment of enzyme no, reaction time 0 h
[27] = 65° C., heat treatment of enzyme no, reaction time 1 h
[28] = 65° C., heat treatment of enzyme no, reaction time 3 h
[29] = 65° C., heat treatment of enzyme no, reaction time 6 h
[30] = 65° C., heat treatment of enzyme yes, reaction time 6 h
[31] = 65 °C, heat treatment of enzyme: no, 0 h
[32] = 65 °C, heat treatment of enzyme: no, 1 h
[33] = 65 °C, heat treatment of enzyme: no, 3 h
[34] = 65 °C, heat treatment of enzyme: no, 6 h
[35] = 65 °C, heat treatment of enzyme: yes, 6 h
[36] = 80° C., heat treatment of enzyme no, reaction time 0 h
[37] = 80° C., heat treatment of enzyme no, reaction time 1 h
[38] = 80° C., heat treatment of enzyme no, reaction time 3 h
[39] = 80° C., heat treatment of enzyme no, reaction time 6 h
[40] = 80° C., heat treatment of enzyme yes, reaction time 6 h
[41] = 80 °C, heat treatment of enzyme: no, 0 h
[42] = 80 °C, heat treatment of enzyme: no, 1 h
[43] = 80 °C, heat treatment of enzyme: no, 3 h
[44] = 80 °C, heat treatment of enzyme: no, 6 h
[45] = 80 °C, heat treatment of enzyme: yes, 6 h

In the case of `CC(=O)OC[C@H]1O[C@@H](Oc2ccc3c(=O)c(-c4ccc(O)cc4)coc3c2)[C@H](O)[C@@H](O)[C@@H]1O` [acetyldaidzin, 6″-O-acetyldaidzin], the “Decomposition efficiency of daidzin family in concentrated soybean protein” value [1] is reported as 44.6%, the “Decomposition efficiency of daidzin family in defatted soybean” value [1] is reported as “not detected” and the “Decomposition efficiency of daidzin family in concentrated soybean protein” value [2] is reported as 44.4%. The “Decomposition efficiency of daidzin family in defatted soybean” value [2] was “not detected”, the “Decomposition efficiency of daidzin family in concentrated soybean protein” value [3] was 43.9% and the “Decomposition efficiency of daidzin family in defatted soybean” value [3] was “not detected”. For the same compound, the “Decomposition efficiency of daidzin family in concentrated soybean protein” value [4] was 43.5%, the “Decomposition efficiency of daidzin family in defatted soybean” value [4] was “not detected” and the “Decomposition efficiency of daidzin family in concentrated soybean protein” value [5] was 42.3%. For the same compound, the “Decomposition efficiency of daidzin family in defatted soybean” value [5] was “not detected”, the “Decomposition efficiency of daidzin family in soymilk” value (“Decomposition efficiency … in soymilk” for short) (30 °C, heat treatment of enzyme: no, 0 h) was “not detected” and the “Decomposition efficiency … in soymilk” value (30 °C, heat treatment of enzyme: no, 1 h) was “not detected”. For the same compound, the “Decomposition efficiency … in soymilk” value (30 °C, heat treatment of enzyme: no, 3 h) was “not detected”, the “Decomposition efficiency … in soymilk” value (30 °C, heat treatment of enzyme: no, 6 h) was “not detected” and the “Decomposition efficiency … in soymilk” value (30 °C, heat treatment of enzyme: yes, 6 h) was “not detected”. The “Decomposition efficiency of daidzin family in roasted soy flour” value (35 °C, heat treatment of enzyme: no, 0 h) was 47.8%, the “Decomposition efficiency of daidzin family in roasted soy flour” value (35 °C, heat treatment of enzyme: no, 1 h) was 46.9% and the “Decomposition efficiency of daidzin family in roasted soy flour” value (35 °C, heat treatment of enzyme: no, 3 h) was 45.3%. The “Decomposition efficiency of daidzin family in roasted soy flour” value (35 °C, heat treatment of enzyme: no, 6 h) was 39.6%, the “Decomposition efficiency of daidzin family in roasted soy flour” value (35 °C, heat treatment of enzyme: yes, 6 h) was 43.8% and the “Decomposition efficiency of daidzin family in concentrated soybean protein” value [6] was 44.5%. The “Decomposition efficiency of daidzin family in defatted soybean” value [6] was “not detected”, the “Decomposition efficiency of daidzin family in concentrated soybean protein” value [7] was 44.1% and the “Decomposition efficiency of daidzin family in defatted soybean” value [7] was “not detected”. The “Decomposition efficiency of daidzin family in concentrated soybean protein” value [8] was 41.5%, the “Decomposition efficiency of daidzin family in defatted soybean” value [8] was “not detected” and the “Decomposition efficiency of daidzin family in concentrated soybean protein” value [9] was 42.9%. The “Decomposition efficiency of daidzin family in defatted soybean” value [9] was “not detected”, the “Decomposition efficiency of daidzin family in concentrated soybean protein” value [10] was 0.0% and the “Decomposition efficiency of daidzin family in defatted soybean” value [10] was “not detected”. The “Decomposition efficiency of daidzin family in roasted soy flour” value [11] was 47.7%, the “Decomposition efficiency … in soymilk” value [11] was “not detected” and the “Decomposition efficiency of daidzin family in roasted soy flour” value [12] was 42.9%. The “Decomposition efficiency … in soymilk” value [12] was “not detected”, the “Decomposition efficiency of daidzin family in roasted soy flour” value [13] was 37.9% and the “Decomposition efficiency … in soymilk” value [13] was “not detected”. For the same compound, the “Decomposition efficiency of daidzin family in roasted soy flour” value [14] was 28.5%, the “Decomposition efficiency … in soymilk” value [14] was “not detected” and the “Decomposition efficiency of daidzin family in roasted soy flour” value [15] was 42.5%. For the same compound, the “Decomposition efficiency … in soymilk” value [15] was “not detected”, the “Decomposition efficiency of daidzin family in concentrated soybean protein” value [16] was 44.5% and the “Decomposition efficiency of daidzin family in defatted soybean” value [16] was “not detected”. For the same compound, the “Decomposition efficiency of daidzin family in concentrated soybean protein” value [17] was 44.0%, the “Decomposition efficiency of daidzin family in defatted soybean” value [17] was “not detected” and the “Decomposition efficiency of daidzin family in concentrated soybean protein” value [18] was 40.6%. For the same compound, the “Decomposition efficiency of daidzin family in defatted soybean” value [18] was “not detected”, the “Decomposition efficiency of daidzin family in concentrated soybean protein” value [19] was 37.7% and the “Decomposition efficiency of daidzin family in defatted soybean” value [19] was “not detected”. For the same compound, the “Decomposition efficiency of daidzin family in concentrated soybean protein” value [20] was 42.3%, the “Decomposition efficiency of daidzin family in defatted soybean” value [20] was “not detected” and the “Decomposition efficiency of daidzin family in roasted soy flour” value [21] was 47.5%. The “Decomposition efficiency … in soymilk” value [21] was “not detected”, the “Decomposition efficiency of daidzin family in roasted soy flour” value [22] was 42.8% and the “Decomposition efficiency … in soymilk” value [22] was “not detected”. For the same compound, the “Decomposition efficiency of daidzin family in roasted soy flour” value [23] was 32.5%, the “Decomposition efficiency … in soymilk” value [23] was “not detected” and the “Decomposition efficiency of daidzin family in roasted soy flour” value [24] was 26.7%. For the same compound, the “Decomposition efficiency … in soymilk” value [24] was “not detected”, the “Decomposition efficiency of daidzin family in roasted soy flour” value [25] was 43.6% and the “Decomposition efficiency … in soymilk” value [25] was “not detected”. The “Decomposition efficiency of daidzin family in concentrated soybean protein” value [26] was 44.6%, the “Decomposition efficiency of daidzin family in defatted soybean” value [26] was “not detected” and the “Decomposition efficiency of daidzin family in concentrated soybean protein” value [27] was 44.3%. The “Decomposition efficiency of daidzin family in defatted soybean” value [27] was “not detected”, the “Decomposition efficiency of daidzin family in concentrated soybean protein” value [28] was 42.9% and the “Decomposition efficiency of daidzin family in defatted soybean” value [28] was “not detected”. The “Decomposition efficiency of daidzin family in concentrated soybean protein” value [29] was 41.6%, the “Decomposition efficiency of daidzin family in defatted soybean” value [29] was “not detected” and the “Decomposition efficiency of daidzin family in concentrated soybean protein” value [30] was 43.6%. The “Decomposition efficiency of daidzin family in defatted soybean” value [30] was “not detected”, the “Decomposition efficiency of daidzin family in roasted soy flour” value [31] was 47.8% and the “Decomposition efficiency … in soymilk” value [31] was “not detected”. For the same compound, the “Decomposition efficiency of daidzin family in roasted soy flour” value [32] was 43.7%, the “Decomposition efficiency … in soymilk” value [32] was “not detected” and the “Decomposition efficiency of daidzin family in roasted soy flour” value [33] was 40.2%. For the same compound, the “Decomposition efficiency … in soymilk” value [33] was “not detected”, the “Decomposition efficiency of daidzin family in roasted soy flour” value [34] was 37.8% and the “Decomposition efficiency … in soymilk” value [34] was “not detected”. For the same compound, the “Decomposition efficiency of daidzin family in roasted soy flour” value [35] was 46.1%, the “Decomposition efficiency … in soymilk” value [35] was “not detected” and the “Decomposition efficiency of daidzin family in concentrated soybean protein” value [36] was 44.5%. For the same compound, the “Decomposition efficiency of daidzin family in defatted soybean” value [36] was “not detected”, the “Decomposition efficiency of daidzin family in concentrated soybean protein” value [37] was 45.5% and the “Decomposition efficiency of daidzin family in defatted soybean” value [37] was “not detected”. The “Decomposition efficiency of daidzin family in concentrated soybean protein” value [38] was 44.7%, the “Decomposition efficiency of daidzin family in defatted soybean” value [38] was “not detected” and the “Decomposition efficiency of daidzin family in concentrated soybean protein” value [39] was 43.8%. For the same compound, the “Decomposition efficiency of daidzin family in defatted soybean” value [39] was “not detected”, the “Decomposition efficiency of daidzin family in concentrated soybean protein” value [40] was 42.3% and the “Decomposition efficiency of daidzin family in defatted soybean” value [40] was “not detected”. The “Decomposition efficiency of daidzin family in roasted soy flour” value [41] was 47.7%, the “Decomposition efficiency … in soymilk” value [41] was “not detected” and the “Decomposition efficiency of daidzin family in roasted soy flour” value [42] was 49.1%. For the same compound, the “Decomposition efficiency … in soymilk” value [42] was “not detected”, the “Decomposition efficiency of daidzin family in roasted soy flour” value [43] was 47.9% and the “Decomposition efficiency … in soymilk” value [43] was “not detected”. The “Decomposition efficiency of daidzin family in roasted soy flour” value [44] was 46.7%, the “Decomposition efficiency … in soymilk” value [44] was “not detected” and the “Decomposition efficiency of daidzin family in roasted soy flour” value [45] was 45.0%. For the same compound, the “Decomposition efficiency … in soymilk” value [45] was “not detected”.
